In US20230024096A1, “BIFUNCTIONAL COMPOUNDS FOR THE TREATMENT OF CANCER” (Hoffmann-La Roche Inc., priority 2019, published 2023):

Biological target: T1, SMARCA2 (Homo sapiens, UniProt P51531)
T1 construct: endogenous in cells; host or cells: HT1080 (CRISPR HiBiT knock-in clone, generated in house)
Experiment: SMARCA2 HiBiT degradation assay (cellular)
Assay type: cell-based
Settings: table head names A549; for DC50: 6 h incubation, HiBiT-tagged SMARCA2, luminescence read-out, read-out: HiBit A549 SMARCA2 IP (nM) 6 h; for Emax: A549, 6 h incubation, Emax = amount of residual protein remaining in the cell following compound treatment

T1 sequence (P51531 whole entry): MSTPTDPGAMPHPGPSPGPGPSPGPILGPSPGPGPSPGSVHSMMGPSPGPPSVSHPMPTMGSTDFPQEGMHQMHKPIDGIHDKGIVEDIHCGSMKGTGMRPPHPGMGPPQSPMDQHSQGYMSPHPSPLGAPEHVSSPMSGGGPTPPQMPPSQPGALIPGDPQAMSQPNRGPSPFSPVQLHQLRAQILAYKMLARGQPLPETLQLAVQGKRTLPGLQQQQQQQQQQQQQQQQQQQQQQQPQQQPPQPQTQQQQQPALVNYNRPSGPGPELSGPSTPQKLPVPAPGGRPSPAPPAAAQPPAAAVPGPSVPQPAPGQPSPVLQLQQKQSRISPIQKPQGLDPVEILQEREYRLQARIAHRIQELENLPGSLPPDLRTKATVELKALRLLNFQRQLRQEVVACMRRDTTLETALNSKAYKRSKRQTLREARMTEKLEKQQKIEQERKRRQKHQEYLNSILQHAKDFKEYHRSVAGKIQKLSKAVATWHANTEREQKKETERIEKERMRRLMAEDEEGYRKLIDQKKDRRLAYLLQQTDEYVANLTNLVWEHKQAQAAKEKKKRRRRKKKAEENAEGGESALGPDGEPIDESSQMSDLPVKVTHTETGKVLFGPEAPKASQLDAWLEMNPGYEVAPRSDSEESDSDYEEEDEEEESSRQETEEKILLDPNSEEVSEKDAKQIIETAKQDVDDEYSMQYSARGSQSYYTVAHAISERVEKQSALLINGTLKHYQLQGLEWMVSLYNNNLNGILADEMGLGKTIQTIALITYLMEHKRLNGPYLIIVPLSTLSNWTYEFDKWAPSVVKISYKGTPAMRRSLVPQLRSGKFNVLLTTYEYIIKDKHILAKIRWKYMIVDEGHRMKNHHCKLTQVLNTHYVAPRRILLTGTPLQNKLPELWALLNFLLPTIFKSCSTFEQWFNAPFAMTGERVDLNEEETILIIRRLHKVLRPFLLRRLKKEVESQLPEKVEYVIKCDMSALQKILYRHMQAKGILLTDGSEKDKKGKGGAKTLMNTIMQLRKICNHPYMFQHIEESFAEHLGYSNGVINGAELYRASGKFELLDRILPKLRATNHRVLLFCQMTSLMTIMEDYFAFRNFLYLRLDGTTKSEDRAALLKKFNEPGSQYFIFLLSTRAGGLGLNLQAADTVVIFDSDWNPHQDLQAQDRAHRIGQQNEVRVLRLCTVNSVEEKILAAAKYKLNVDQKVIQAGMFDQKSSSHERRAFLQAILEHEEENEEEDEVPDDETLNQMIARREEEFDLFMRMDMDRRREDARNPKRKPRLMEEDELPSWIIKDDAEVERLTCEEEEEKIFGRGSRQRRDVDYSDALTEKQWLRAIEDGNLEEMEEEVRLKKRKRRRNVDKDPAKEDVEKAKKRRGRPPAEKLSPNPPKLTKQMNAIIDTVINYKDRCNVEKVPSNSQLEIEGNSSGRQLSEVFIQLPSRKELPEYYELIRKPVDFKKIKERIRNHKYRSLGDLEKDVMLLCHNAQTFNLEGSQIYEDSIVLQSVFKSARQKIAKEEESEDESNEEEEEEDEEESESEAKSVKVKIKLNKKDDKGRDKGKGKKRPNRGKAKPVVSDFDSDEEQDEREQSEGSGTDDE

Compound	DC50	Emax
Nc1nnc(-c2cc(F)ccc2O)cc1N1C2CCC1CN(c1cccc(OCCN3CCN(CC4CCN(c5ccc6c(c5)C(=O)N(C5CCC(=O)NC5=O)C6=O)CC4)CC3)c1)C2 (stereo not drawn) [Example 57, 5-[4-[[4-[2-[3-[8-[3-amino-6-(5-fluoro-2-hydroxy-phenyl)pyridazin-4-yl]-3,8-diazabicyclo[3.2.1]octan-3-yl]phenoxy]ethyl]piperazin-1-yl]methyl]-1-piperidyl]-2-(2,6-dioxo-3-piperidyl)isoindoline-1,3-dione]	406 nM	67%
Nc1nnc(-c2cc(F)ccc2O)cc1N1C2CCC1CN(c1cccc(OCCN3CCN(C(=O)C4CCN(c5ccc6c(c5)C(=O)N(C5CCC(=O)NC5=O)C6=O)CC4)CC3)c1)C2 (stereo not drawn) [Example 160, 5-[4-[4-[2-[3-[8-[3-amino-6-(5-fluoro-2-hydroxy-phenyl)pyridazin-4-yl]-3,8-diazabicyclo[3.2.1]octan-3-yl]phenoxy]ethyl]piperazine-1-carbonyl]-1-piperidyl]-2-(2,6-dioxo-3-piperidyl)isoindoline-1,3-dione]	144 nM	74%
Nc1nnc(-c2ccccc2O)cc1N1CCC(CNC(=O)COc2ccc3c(c2)C(=O)N(C2CCC(=O)NC2=O)C3=O)(c2ccccc2)CC1 (stereo not drawn) [Example 73, N-((1-(3-amino-6-(2-hydroxyphenyl)pyridazin-4-yl)-4-phenylpiperidin-4-yl)methyl)-2-((2-(2,6-dioxopiperidin-3-yl)-1,3-dioxoisoindolin-5-yl)oxy)acetamide]	114 nM	49%
Nc1nnc(-c2cc(F)ccc2O)cc1N1CC2CCC(C1)N2c1cccc(CN2CCN(C(=O)C3CCN(c4ccc5c(c4)C(=O)N(C4CCC(=O)NC4=O)C5=O)CC3)CC2)c1 (stereo not drawn) [Example 158, 5-[4-[4-[[3-[3-[3-amino-6-(5-fluoro-2-hydroxy-phenyl)pyridazin-4-yl]-3,8-diazabicyclo[3.2.1]octan-8-yl]phenyl]methyl]piperazine-1-carbonyl]-1-piperidyl]-2-(2,6-dioxo-3-piperidyl)isoindoline-1,3-dione]	–	5%

Next, values leading:

DC50	Emax	Compound
92 nM	43%	Nc1nnc(-c2ccccc2O)cc1N1CCN(c2ccccc2)C(C(=O)NCC2CCC(NC(=O)C3CCN(c4ccc5c(c4)C(=O)N(C4CCC(=O)NC4=O)C5=O)CC3)CC2)C1 (stereo not drawn) [Example 85, 4-[3-amino-6-(2-hydroxyphenyl)pyridazin-4-yl]-N-[[4-[[1-[2-(2,6-dioxopiperidin-3-yl)-1,3-dioxoisoindol-5-yl]piperidine-4-carbonyl]amino]cyclohexyl]methyl]-1-phenylpiperazine-2-carboxamide]
659 nM	30%	Nc1nnc(-c2ccccc2O)cc1OCC(CNC(=O)C1CCN(c2ccc3c(c2)C(=O)N(C2CCC(=O)NC2=O)C3=O)CC1)c1ccccc1 (racemic) [Example 97, N-[3-[3-amino-6-(2-hydroxyphenyl)pyridazin-4-yl]oxy-2-phenyl-propyl]-1-[2-(2,6-dioxo-3-piperidyl)-1,3-dioxo-isoindolin-5-yl]piperidine-4-carboxamide (racemic mixture of diastereomers)]
122 nM	46%	Nc1nnc(-c2ccccc2O)cc1N1CCN(c2ccccc2)C(C(=O)NC2CCN(C(=O)CC3CCN(c4ccc5c(c4)C(=O)N(C4CCC(=O)NC4=O)C5=O)CC3)CC2)C1 (stereo not drawn) [Example 53, 4-[3-amino-6-(2-hydroxyphenyl)pyridazin-4-yl]-N-[1-[2-[1-[2-(2,6-dioxo-3-piperidyl)-1,3-dioxo-isoindolin-5-yl]-4-piperidyl]acetyl]-4-piperidyl]-1-phenyl-piperazine-2-carboxamide]
579 nM	53%	Nc1nnc(-c2ccccc2O)cc1N1CCC(C(=O)N2CC3(CCN(C(=O)CC4CCN(c5ccc6c(c5)C(=O)N(C5CCC(=O)NC5=O)C6=O)CC4)C3)C2)(c2ccccc2)CC1 (stereo not drawn) [Example 187, 5-(4-(2-(2-(1-(3-amino-6-(2-hydroxyphenyl)pyridazin-4-yl)-4-phenylpiperidine-4-carbonyl)-2,6-diazaspiro[3.4]octan-6-yl)-2-oxoethyl)piperidin-1-yl)-2-(2,6-dioxopiperidin-3-yl)isoindoline-1,3-dione]
